We go through ten molecules from publication PMC6744613 (ACS chemical neuroscience, 2018).

Residue numbers refer to the chain shown, from its start. Like-named read-outs stand apart in the source and are kept apart here.

The target of assay [1] is T1, COX-2 (Macaca mulatta, UniProt F7BWZ9).
T1 sequence (F7BWZ9 18-604): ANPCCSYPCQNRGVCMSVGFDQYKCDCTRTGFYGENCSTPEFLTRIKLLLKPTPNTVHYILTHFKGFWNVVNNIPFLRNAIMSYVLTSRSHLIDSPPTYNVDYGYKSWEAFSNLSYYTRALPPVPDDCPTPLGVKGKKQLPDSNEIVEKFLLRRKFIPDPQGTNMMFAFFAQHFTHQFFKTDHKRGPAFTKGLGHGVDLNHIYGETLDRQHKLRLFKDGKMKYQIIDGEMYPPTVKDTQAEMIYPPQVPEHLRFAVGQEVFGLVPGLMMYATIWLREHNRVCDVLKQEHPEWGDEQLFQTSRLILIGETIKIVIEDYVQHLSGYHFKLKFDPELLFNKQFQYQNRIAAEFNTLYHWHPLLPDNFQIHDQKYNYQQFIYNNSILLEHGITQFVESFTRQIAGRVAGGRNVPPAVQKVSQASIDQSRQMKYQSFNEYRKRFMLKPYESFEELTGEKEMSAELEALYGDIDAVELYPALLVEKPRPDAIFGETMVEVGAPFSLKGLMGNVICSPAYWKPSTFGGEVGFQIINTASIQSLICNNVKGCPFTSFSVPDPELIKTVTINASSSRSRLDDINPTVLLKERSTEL
The assay can be described thus: COX-2 whole-blood enzymatic immunoassay. It is filed as cell-based. Conditions: read-out: IC50 COX-2 Monkey, mean ± SD (n = 3).

Assay [2] deals with T2, COX-1 (Macaca mulatta, UniProt F6S984).
T2 sequence (F6S984 25-599): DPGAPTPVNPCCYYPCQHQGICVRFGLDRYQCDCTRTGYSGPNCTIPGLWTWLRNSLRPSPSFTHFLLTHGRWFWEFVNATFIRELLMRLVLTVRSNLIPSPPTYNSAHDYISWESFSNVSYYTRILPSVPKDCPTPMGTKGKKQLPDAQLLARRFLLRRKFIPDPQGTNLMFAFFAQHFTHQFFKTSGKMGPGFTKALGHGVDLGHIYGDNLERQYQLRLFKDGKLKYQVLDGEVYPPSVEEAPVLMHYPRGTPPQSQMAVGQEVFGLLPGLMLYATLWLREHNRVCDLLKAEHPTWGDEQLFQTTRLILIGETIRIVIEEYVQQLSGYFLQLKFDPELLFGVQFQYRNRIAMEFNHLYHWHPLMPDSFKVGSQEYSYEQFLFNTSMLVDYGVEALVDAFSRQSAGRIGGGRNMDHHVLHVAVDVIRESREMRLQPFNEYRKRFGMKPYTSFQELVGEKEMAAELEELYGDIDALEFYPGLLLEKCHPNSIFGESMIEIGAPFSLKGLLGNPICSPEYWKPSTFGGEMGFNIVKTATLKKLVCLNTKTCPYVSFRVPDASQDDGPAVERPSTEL
The assay can be described thus: COX-1 whole-blood enzymatic immunoassay. It is filed as cell-based. Conditions: read-out: IC50 COX-1 Monkey, mean ± SD (n = 3).

The test system of a further assay is human COX-1. The following applies: read-out: IC50 for human COX-1 (reported); human whole blood; cited from earlier work.
In assay [3] the target is T3, COX-1 (Rattus norvegicus, UniProt Q63921).
T3 sequence (Q63921 27-602): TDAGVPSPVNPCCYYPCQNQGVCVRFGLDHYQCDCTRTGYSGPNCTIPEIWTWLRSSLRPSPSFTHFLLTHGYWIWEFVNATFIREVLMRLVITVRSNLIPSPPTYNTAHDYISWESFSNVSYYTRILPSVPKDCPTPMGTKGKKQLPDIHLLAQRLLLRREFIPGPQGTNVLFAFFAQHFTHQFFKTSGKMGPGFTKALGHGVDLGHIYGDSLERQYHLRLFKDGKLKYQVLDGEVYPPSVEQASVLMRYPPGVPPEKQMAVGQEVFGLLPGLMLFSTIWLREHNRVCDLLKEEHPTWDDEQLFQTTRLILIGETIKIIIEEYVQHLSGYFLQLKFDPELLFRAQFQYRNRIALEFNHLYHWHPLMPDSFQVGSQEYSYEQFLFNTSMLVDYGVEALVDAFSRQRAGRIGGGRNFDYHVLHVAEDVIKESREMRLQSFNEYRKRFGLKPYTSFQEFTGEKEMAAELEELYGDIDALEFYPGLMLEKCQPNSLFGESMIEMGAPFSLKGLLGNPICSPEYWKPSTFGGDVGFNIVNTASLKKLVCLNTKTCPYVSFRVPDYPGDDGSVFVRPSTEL
The experiment in a line: COX-1 whole-blood enzymatic immunoassay. It is filed as cell-based.

In assay [4] the target is T4, COX-2 (Homo sapiens, UniProt P35354).
T4 sequence (P35354 18-604): T1 sequence (F7BWZ9 18-604) with Y7H, L49F, V101A, F150L, T163S, K191N, D208A, H211R, N363T, R570G
The assay can be described thus: COX-2 whole-blood enzymatic immunoassay. It is filed as cell-based.

Assay [5] has as its target COX-1 (Homo sapiens, UniProt P23219). The experiment in a line: COX-1 whole-blood enzymatic immunoassay. It is filed as cell-based.
Where [6] appears, read: read-out: IC50 COX-1 Human, human whole blood, mean ± SD (n = 3).

COX-1 (Homo sapiens, UniProt P23219), sequence (P23219 24-599): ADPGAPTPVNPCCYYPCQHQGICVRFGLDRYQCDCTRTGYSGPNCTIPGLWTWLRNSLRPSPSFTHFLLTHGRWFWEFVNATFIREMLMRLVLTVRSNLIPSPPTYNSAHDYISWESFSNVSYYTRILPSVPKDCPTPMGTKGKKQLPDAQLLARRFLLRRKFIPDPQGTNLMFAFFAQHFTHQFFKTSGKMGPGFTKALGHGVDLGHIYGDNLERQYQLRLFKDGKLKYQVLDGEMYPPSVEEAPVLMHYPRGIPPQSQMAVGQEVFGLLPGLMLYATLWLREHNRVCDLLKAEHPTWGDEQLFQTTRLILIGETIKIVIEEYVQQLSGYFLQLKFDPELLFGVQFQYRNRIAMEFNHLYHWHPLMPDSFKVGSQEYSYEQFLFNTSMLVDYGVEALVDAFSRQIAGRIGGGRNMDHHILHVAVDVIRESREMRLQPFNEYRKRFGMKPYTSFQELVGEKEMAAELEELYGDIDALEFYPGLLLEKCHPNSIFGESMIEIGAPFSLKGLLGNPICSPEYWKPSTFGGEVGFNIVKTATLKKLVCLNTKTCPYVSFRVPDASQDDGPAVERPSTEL

In general, IC50 refers to the concentration that gives 50% inhibition. Take `C[C@H](C(=O)O)c1cccc(C(=O)c2ccccc2)c1` [Inhibitor 4, (S)-ketoprofen, reference compound]: the figures for the concentration for half-maximal inhibition (IC50) at COX-2 [1] and on COX-1 [2] were 400 ± 113 nM and 40 ± 17 nM, respectively.

In the case of `COc1ccc(-c2nc(OC)nn2-c2ccc(OC)cc2)cc1` [Inhibitor 5], the IC50 at COX-2 [1] was above 1000 nM; at COX-1 [2], 4.6 ± 1.3 nM; with human COX-1, 4.9 nM.

For the molecule `COc1ccc(-c2nc(OCC(F)(F)F)nn2-c2ccc(OC)cc2)cc1` [Inhibitor 20, 1,5-Bis(4-methoxyphenyl)-3-(2,2,2-trifluoroethoxy)-1H-1,2,4-triazole], the IC50 was above 1000 nM on COX-2 [1], 15 nM on COX-1 [3] and 1 ± 0.3 nM on COX-1 [2].

Regarding `COc1ccc(-n2nc(C(F)(F)F)nc2-c2ccc(F)nc2)cc1` [Inhibitor 24, 2-Fluoro-5-(1-(4-methoxyphenyl)-3-(trifluoromethyl)-1H-1,2,4-triazol-5-yl)pyridine], the IC50 is above 1000 nM at COX-2 [4], 10 ± 3 nM at COX-1 [2] and 2 ± 0.1 nM against COX-1 [5].

On to `COc1ccc(-c2nc(SCF)nn2-c2ccc(OC)cc2)cc1` [Inhibitor 26, 3-(Fluoromethylthio)-1,5-bis(4-methoxyphenyl)-1H-1,2,4-triazole], for which the IC50 is above 1000 nM on COX-2 [4], 6.4 ± 0.8 nM at COX-1 [2] and 5 ± 3.9 nM against COX-1 [5].

Consider `COc1ccc(-c2nc([S+]([O-])CF)nn2-c2ccc(OC)cc2)cc1` (stereo not drawn) [Inhibitor 27, 3-(Fluoromethylsulfinyl)-1,5-bis(4-methoxyphenyl)-1H-1,2,4-triazole], for which the 50% inhibitory concentration (IC50) on COX-2 [4] was above 1000 nM; at COX-2 [1] it was 545 ± 102 nM; on COX-1 [2], 5 ± 2 nM; against COX-1 [5], 3 ± 1.7 nM.

As to `COc1ccc(-c2nc(S(=O)(=O)CF)nn2-c2ccc(OC)cc2)cc1` [Inhibitor 28, 3-(Fluoromethylsulfonyl)-1,5-bis(4-methoxyphenyl)-1H-1,2,4-triazole], the IC50 against COX-2 [4] is above 1000 nM; at COX-1 [2], 25 ± 3 nM; against COX-1 [5] it was 3 ± 1.2 nM.

Take `COc1ccc(-n2nc(OC)nc2-c2ccccc2)cc1` [Inhibitor 31, 3-Methoxy-1-(4-methoxyphenyl)-5-phenyl-1H-1,2,4-triazole]: the IC50 on COX-2 [4] (read-out: IC50 COX-2 Human, human whole blood, mean ± SD (n = 3)) is above 1000 nM; at COX-1 [2], 3 ± 2.5 nM; at COX-1 [5] (setting [6]) it was 3 ± 0.06 nM.

On to `COc1ccc(-n2nc(OCF)nc2-c2ccccc2)cc1` [Inhibitor 32, 3-(Fluoromethoxy)-1-(4-methoxyphenyl)-5-phenyl-1H-1,2,4-triazole], for which the half-inhibitory concentration (IC50) amounted to 100 ± 25 nM at COX-2 [4], 100 nM on COX-1 [2] and 1.7 ± 0.6 nM at COX-1 [5].

Consider `COc1cc(NCc2cccs2)nc(-c2ccc(S(C)(=O)=O)cc2)n1` [Inhibitor 34, [2-(4-Methanesulfonylphenyl)-6-methoxypyrimidin-4-yl]thiophen-2-ylme-thylamine, reference compound], for which the IC50 on COX-2 [1] was 1 ± 0.5 nM; on COX-1 [2], above 1000 nM; on COX-1 [5] (setting [6]), above 1000 nM.
